Patent US10053432B2, “Substituted [1,2,4]triazole and imidazole compounds” (BASF SE, priority 2013, dated 2018)

What was measured:
Format in all cases: cell-based
Settings in all cases: at 31 ppm; absorption at 405 nm 7 days after inoculation; relative to active compound-free control (100%)
Pyricularia oryzae = test system: Pyricularia oryzae
Septoria tritici = experiment: Activity against leaf blotch on wheat caused by Septoria tritici (Septtr), microtiterplate test
Botrytis cinerea = experiment: Activity against the grey mold Botrytis cinerea in the microtiterplate test (Botrci)

Measured: growth (relative growth in % of the pathogen)

OC(Cn1cncn1)(c1ccc(C#CC2CC2)cc1Cl)C1CC1 (stereo not drawn) [Compound I-1, 1-[2-chloro-4-(2-cyclopropylethynyl)phenyl]-1-cyclopropyl-2-(1,2,4-triazol-1-yl)ethanol]
0%: all assays above
